US11911349B2, “Rapidly improving vascular conditions by administering vitamin K” (NATTOPHARMA AS, priority 2018, dated 2024)

Tests used:
thrombin generation = assay: Example 3: thrombin generation by calibrated automated thrombogram (CAT) in plasma; format: in vivo, mice; conditions: eight weeks
Protocol: Thrombin generation was measured in platelet-poor mice plasma using calibrated automated thrombography (CAT) technique as described in Hemker H C, Giesen P, Al Dieri R, Regnault V, de Smedt E, Wagenvoord R, et al. Calibrated automated thrombin generation measurement in clotting plasma. Pathophysiol Haemost Thromb 2003; 33:4-15. doi:71636. Thrombin generation was activated by mixing 21 μL of diluted plasma (1:1 with BSA5 buffer) with 7 μIL of fluorogenic substrate (Z-Gly-Gly-Arg-AMC, 16.6 mM) and 14 μL of trigger solution containing phospholipids, tissue factor and CaCl2 (4 μM, 1 pM and 16.6 mM, respectively). In the calibration wells, the 14 μL of reagents were replaced with calibrator (102 nM). Immediately after the activation, 5 μL of the mixture was pipetted on paper disks in a flat bottom 96-well polystyrene plate and covered with 40 μL of mineral oil. Fluorescent signals were measured using the Fluoroskan Ascent software (Thermo Labsystems, Helsinki, Finland) and transformed into thrombin concentration as described in Hemker H C, Kremers R. Data management in Thrombin Generation. Thromb Res 2013; 131:3-11. doi:10.1016/j.thromres.2012.10.011. The parameters analyzed included endogenous thrombin potential (ETP), peak thrombin concentration (peak), and lag time.

ApoE/LDLR−/− mice = assay: Example 3: histological assessment of area and composition of atherosclerotic plaque in BCA, older mice; format: in vivo; conditions: eight weeks; for decrease in vessel wall area (VWA): 24-week-old mice
Excerpt: For the determination of atherosclerotic plaque area and composition isolated brachiocephalic artery (BCA) was dissected, fixed in 4% buffered formalin, and embedded in paraffin. 5 μm-thick serial sections of BCA were collected from the proximal to distal part of the artery. Staining with Unna's orcein combined with Martius, Scarlet and Blue trichrome (OMSB) was applied on every tenth section (50 μm interval between each section) for quantitative analysis of atherosclerotic plaques. The areas of particular components of atherosclerotic plaque as well as artery lumen and wall were determined after Columbus-based software processing (FIG. 9) using specially-designed algorithm as described in Gajda M, Jasztal A, Banasik T, Jasek-Gajda E, Chlopicki S. Combined orcein and martius scarlet blue (OMSB) staining for qualitative and quantitative analyses of atherosclerotic plaques in brachiocephalic arteries in apoE/LDLR−/− mice. Histochem Cell Biol 2017. doi:10.1007/s00418-017-1538-8. The parameters analyzed include vessel wall area (VWA), internal vessel area (IVA=plaque area+lumen area), plaque area (expressed as percent of internal wall area: plaque/IWA), and lumen area (expressed as percent of internal wall area: lumen/IWA).

[1] = system: endothelial nitric oxide synthase (eNOS)-dependent nitric oxide (NO) production; assay: Example 3: endothelial NO production in ex vivo aorta by EPR spin-trapping; conditions: 0.05 mg/kg b.w./day, vs untreated age-matched mice
Excerpt: For measurements of endothelial nitric oxide synthase (eNOS)-dependent nitric oxide (NO) production, EPR spin-trapping with diethyldithiocarbamic acid sodium salt (DETC) was used ex vivo, as described in Przyborowski K, Proniewski B, Czarny J, Smeda M, Sitek B, Zakrzewska A, et al. Vascular Nitric Oxide-Superoxide Balance and Thrombus Formation after Acute Exercise. Med Sci Sport Exerc 2018:1. doi:10.1249/MSS.0000000000001589, with minor modifications. Isolated aorta cleared from surrounding tissue was opened longitudinally and preincubated with 10 μM L-NIL (N6-(1-Iminoethyl)-lysine, hydrochloride) in Krebs-HEPES buffer for 30 minutes at 37° C. in a well of a 48-well plate. Next, 250 μL of Fe(DETC)2 colloid was added and aorta was stimulated with calcium ionophore A23187 (the final concentration was 1 μM) and subsequently, incubated for 90 minutes at 37° C. Finally, aorta was weighed and frozen in liquid nitrogen (suspended in fresh buffer) into the middle of a 400 μL column of Krebs-Hepes buffer and stored at −80° C. until measured. EPR spectra were obtained using an X-band EPR spectrometer (EMX Plus, Bruker, Germany), equipped with a rectangular resonator cavity H102. Signals were quantified by measuring the total amplitude of the NO—Fe(DETC)2 after correction of baseline. The quantitative results of NO production assessed by EPR were expressed in AU/mg of tissue.

**Q.** Which thrombin generation (thrombin generation; 0.03 mg/kg b.w./day) does the source give for CC(C)=CCC/C(C)=C/CC/C(C)=C/CC/C(C)=C/CC/C(C)=C/CC/C(C)=C/CC/C(C)=C/CC1=C(C)C(=O)c2ccccc2C1=O [MK-7, menaquinone-7] here?
**A.** Its thrombin generation is “did not affect”.

**Q.** What about the thrombin generation (thrombin generation; 10 mg/kg b.w./day) of the same compound?
**A.** Its thrombin generation is “did not affect”.

**Q.** And the “lumen area expressed as percent of IWA” value (ApoE/LDLR−/− mice; high dose 10 mg/kg b.w./day)?
**A.** Its value is “did not change”.

**Q.** What about the “plaque area expressed as percent of IWA” value (ApoE/LDLR−/− mice; high dose 10 mg/kg b.w./day) of the same compound?
**A.** The value was “did not change”.

**Q.** What about the “plaque size compared with non-treated mice” value (ApoE/LDLR−/− mice; high dose 10 mg/kg b.w./day) of the same compound?
**A.** The value was “not different”.

**Q.** And the “decrease in vessel wall area (VWA)” value (ApoE/LDLR−/− mice; high dose 10 mg/kg b.w./day)?
**A.** The value was “about 5%”.

**Q.** What about the “lumen area expressed as percent of IWA” value (ApoE/LDLR−/− mice; low dose 0.03 mg/kg b.w./day) of the same compound?
**A.** Its value is “did not change”.

**Q.** What about the “plaque area expressed as percent of IWA” value (ApoE/LDLR−/− mice; low dose 0.03 mg/kg b.w./day) of the same compound?
**A.** Its value is “did not change”.

**Q.** What about the “plaque size compared with non-treated mice” value (ApoE/LDLR−/− mice; low dose 0.03 mg/kg b.w./day) of the same compound?
**A.** The value was “not different”.

**Q.** And the “decrease in vessel wall area (VWA)” value (ApoE/LDLR−/− mice; low dose 0.03 mg/kg b.w./day)?
**A.** Its value is “about 5%”.

**Q.** What about the “internal wall area (IWA)” value (ApoE/LDLR−/− mice; lower dose, data not shown, not visible for entire vessel) of the same compound?
**A.** The value was “decreased only in the middle part of the vessel”.

**Q.** And the “nitric oxide production in ex vivo aorta measured by EPR” value [1]?
**A.** The value was “increased”.
